Experiment [1] can be described thus: antisecretory activity, test of Shay, Sun and Gruenstein. Conditions: in vivo.
A further experiment addresses T1, H⁺/K⁺ ATPase (Oryctolagus cuniculus, UniProt P27112).
T1 construct: Rabbit gastric glands are isolated from gastric mucosa from the corpus region of the stomach; from tissue; host or cells: rabbit isolated gastric glands (gastric mucosa, corpus region of the stomach)
As to the kind of experiment: inhibition of 14C-aminopyrine uptake in rabbit isolated gastric glands stimulated by DBcAMP or high K+. Type of experiment: cell-based. Particulars: % inhibition of the maximum response to the secretagogue; for inhibition at 10 µM: at 10⁻⁵M. The protocol:
Compounds of formula I were also tested for anti-secretory activity by their ability to inhibit the highly specific proton transporting enzyme H⁺/K⁺ ATPase.
Potential H⁺/K⁺ ATPase inhibitors were evaluated by a technique involving the measurement of aminopyrine accumulation in rabbit isolated gastric glands. Aminopyrine accumulates in acid-secreting cells; therefore, uptake of aminopyrine is increased by secretagogues and an inhibitor of acid secretion will reduce the response to one or more secretagogues depending upon its site of action. […] The following test procedure is used: Rabbit gastric glands are isolated from gastric mucosa from the corpus region of the stomach by a method based on one described by Berglindh T., Obrink K.J., Acta Physiol. Scand.
Results are expressed as the % inhibition of the maximum response to the secretagogue induced by the test compound. An inhibitor of H⁺/K⁺ ATPase would be expected to reduce the response to both secretagogues.

The next experiment has as its system stress-induced erosion. Nature of the experiment: stress-induced erosion test of Senay and Levine (anti-ulcer activity). Type of experiment: in vivo. Particulars: decrease in ulcer formation as percentage of control score, rats, oral. On the procedure: Anti-ulcer activity was determined by the stress-induced erosion test of Senay and Levine, Proc. Soc. Exp. Biol. Med., 124, 1221-3 (1967). The procedure used was as follows.
Male rats, weighing between 80 and 120 gms. were fasted overnight with water ad lib. The rats were then divided into groups of six and dosed orally with the test drug in the form of a solution or with the vehicle alone, 0.5% carboxymethylcellulose, in a volume of 10ml/kg.
After 30 minutes the rats were inserted into aluminium restraining tubes measuring 1⁵/₈ inches in diameter by 5 inches and placed in the cold (4±1°C) for 3 hours. Immediately after cold exposure the rats were killed with intracranial alcohol and their stomachs excised and opened along the greater curvature. Each stomach was washed gently free of contents with warm tap water and pinned out on a board. The condition of the gastric mucosa was then scored from 0 to 6 on the following scale:
The maximum possible score for each animal was 6 and for the group 36. Decrease in ulcer formation was calculated as a percentage of the control score, i.e. [formula] The statistical significance of the effect is assessed by Student's t-test.

Where [2] appears, read: at 10⁻⁴M, read-out: % Inhibition to stimulation by: DBcAMP.
Where [3] appears, read: at 10⁻⁴M, read-out: % Inhibition to stimulation by: K⁺.

Like-named read-outs stand apart in the source and are kept apart here.

T1 sequence (P27112 whole entry): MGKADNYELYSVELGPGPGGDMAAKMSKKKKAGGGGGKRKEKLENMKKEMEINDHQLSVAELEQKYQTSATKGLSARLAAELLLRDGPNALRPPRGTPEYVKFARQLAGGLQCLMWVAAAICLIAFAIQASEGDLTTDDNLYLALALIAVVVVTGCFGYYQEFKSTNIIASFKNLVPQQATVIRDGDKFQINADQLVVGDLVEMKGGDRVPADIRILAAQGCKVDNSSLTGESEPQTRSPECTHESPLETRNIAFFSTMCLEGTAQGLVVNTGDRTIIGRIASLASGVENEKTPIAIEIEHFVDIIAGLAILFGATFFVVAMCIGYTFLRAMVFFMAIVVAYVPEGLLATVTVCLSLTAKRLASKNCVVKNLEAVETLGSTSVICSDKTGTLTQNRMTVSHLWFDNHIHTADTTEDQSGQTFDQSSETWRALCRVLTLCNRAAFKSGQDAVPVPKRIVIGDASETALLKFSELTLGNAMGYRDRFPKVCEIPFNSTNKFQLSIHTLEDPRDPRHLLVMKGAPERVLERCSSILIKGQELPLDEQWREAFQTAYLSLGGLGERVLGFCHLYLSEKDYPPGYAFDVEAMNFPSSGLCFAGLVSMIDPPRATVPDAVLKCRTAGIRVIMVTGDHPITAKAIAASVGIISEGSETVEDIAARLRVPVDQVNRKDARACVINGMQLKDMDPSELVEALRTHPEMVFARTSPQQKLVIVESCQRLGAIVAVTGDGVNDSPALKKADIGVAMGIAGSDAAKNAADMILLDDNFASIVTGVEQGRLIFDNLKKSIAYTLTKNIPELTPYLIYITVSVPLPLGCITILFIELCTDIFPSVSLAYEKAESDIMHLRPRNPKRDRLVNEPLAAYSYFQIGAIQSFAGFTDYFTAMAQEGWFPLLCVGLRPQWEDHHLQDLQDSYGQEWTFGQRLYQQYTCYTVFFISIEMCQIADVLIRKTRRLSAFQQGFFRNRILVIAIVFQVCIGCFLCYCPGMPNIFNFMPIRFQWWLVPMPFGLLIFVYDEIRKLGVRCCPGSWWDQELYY
T1 sequence (P18597 whole entry partner): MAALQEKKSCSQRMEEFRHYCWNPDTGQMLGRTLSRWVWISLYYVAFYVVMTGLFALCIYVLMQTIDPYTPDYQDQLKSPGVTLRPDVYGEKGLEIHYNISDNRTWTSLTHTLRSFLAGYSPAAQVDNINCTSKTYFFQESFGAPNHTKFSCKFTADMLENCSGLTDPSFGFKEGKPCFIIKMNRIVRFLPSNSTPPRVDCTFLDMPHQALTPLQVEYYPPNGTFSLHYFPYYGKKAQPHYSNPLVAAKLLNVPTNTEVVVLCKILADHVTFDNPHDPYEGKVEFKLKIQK

Regarding “2,3-Dihydro-6-methyl-2-(2-pyridyl)thiazolo[3,2-a]-benzimidazole and 2,3-Dihydro-7-methyl-2-(2-pyridyl)-thiazolo [3,2-a]benzimidazole [Example 7]”, the Antisecretory activity entry in experiment [1] was “particularly active”.
On the same count and under the same terms, the same measure for “2,3-Dihydro-6-methyl-2-(2-pyridyl)thiazolo[3,2-a]-benzimidazole-1-oxide and 2,3-Dihydro-7-methyl-2-(2-pyridyl)thiazolo[3,2-a]benzimidazole-1-oxide [Example 10]”: “particularly active”.
Same read-out and setting: then “6-Chloro-2,3-dihydro-2-(2-pyridyl)thiazolo[3,2-a]-benzimidazole-1-oxide and 7-chloro-2,3-dihydro-2-(2-pyridyl)-thiazolo[3,2-a]benzimidazole-1-oxide [Example 18]”, with “particularly active”.
“6-Ethoxy-2-(2-pyridyl)thiazolo[3,2-a]-benzimidazole and 7-ethoxy-2-(2-pyridyl)thiazolo[3,2-a]benzimidazole [Example 24]”: on H⁺/K⁺ ATPase (at 10⁻⁴M, 100 µM), the “% Inhibition to stimulation by: DBcAMP” value turned out to be 68% at 10⁻⁴M and the “% Inhibition to stimulation by: K⁺” value was determined as 162% at 10⁻⁴M.
The term Inhibition denotes the share of the control response that was lost under treatment. Low values mean a weak effect, high ones a strong effect. On to `c1ccc(C2Cn3c(nc4ccccc43)S2)nc1` (centres unmarked) [Example 1, 2,3-Dihydro-2-(2-pyridyl)thiazolo[3,2-a]benzimidazole], for which the Inhibition in the experiment on stress-induced erosion (Dose 30 mg/kg) is reported as 86%; in the experiment with stress-induced erosion (Dose 100 mg/kg), 75%. Besides, in experiment [1], the Antisecretory activity result is listed as “particularly active”.
The inhibition is the change of the read-out against control, counted positive when it falls. For `[O-][S+]1c2nc3ccccc3n2CC1c1ccccn1` (centres unmarked) [Example 2, 2,3-Dihydro-2-(2-pyridyl)thiazolo[3,2-a]benzimidazole-1-oxide], in experiment [1], the Antisecretory activity result is “particularly active”. The inhibition at 100 µM was determined as 74% on H⁺/K⁺ ATPase (setting [2]) and 91% on H⁺/K⁺ ATPase (setting [3]). In addition, the inhibition at 10 µM is 73% at H⁺/K⁺ ATPase (read-out: % Inhibition to stimulation by: DBcAMP) and 26% on H⁺/K⁺ ATPase (read-out: % Inhibition to stimulation by: K⁺).
Take `c1ccc(C2Cn3c(nc4ccccc43)S2)cc1` (centres unmarked) [Example 3, 2,3-Dihydro-2-phenylthiazolo[3,2-a]benzimidazole]: the Inhibition in the experiment with stress-induced erosion (Dose 100 mg/kg) is given as 74%.
In the case of `Cc1ccc(C2Cn3c(nc4cc(Cl)c(Cl)cc43)S2)cn1` (centres unmarked) [Example 6, 6,7-Dichloro-2,3-dihydro-2-(6-methylpyrid-3-yl)thiazolo-[3,2-a]benzimidazole], the inhibition at 100 µM on H⁺/K⁺ ATPase (setting [2]) came out at 90%; on H⁺/K⁺ ATPase (setting [3]), 187%.
Consider `Clc1cc2nc3n(c2cc1Cl)CC(c1ccccn1)S3` (centres unmarked) [Example 8, 6,7-Dichloro-2,3-dihydro-2-(2-pyridyl)thiazolo[3,2-a]-benzimidazole], for which the inhibition at 100 µM at H⁺/K⁺ ATPase (setting [2]) amounted to 50.5%.
Turning to `Cc1cc2nc3n(c2cc1C)CC(c1ccccn1)S3` (centres unmarked) [Example 9, 2,3-Dihydro-6,7-dimethyl-2-(2-pyridyl)thiazolo[3,2-a]-benzimidazole], in the experiment on stress-induced erosion (Dose 100 mg/kg), the Inhibition is listed as 82%. Further, in experiment [1], the Antisecretory activity result is recorded as “particularly active”.
For `Cc1cc2nc3n(c2cc1C)CC(c1ccccn1)[S+]3[O-]` (centres unmarked) [Example 13, 2,3-Dihydro-6,7-dimethyl-2-(2-pyridyl)thiazolo[3,2-a]-benzimidazole-1-oxide], the Antisecretory activity entry in experiment [1] was “particularly active”. Moreover, the inhibition at 100 µM on H⁺/K⁺ ATPase (setting [2]) stood at 30%; on H⁺/K⁺ ATPase (setting [3]), 209%.
For `CCc1ccc(-c2cn3c(nc4ccccc43)s2)nc1` [Example 27, 2-(2-(5-Ethylpyridyl))thiazolo[3,2-a]benzimidazole], the inhibition at 100 µM on H⁺/K⁺ ATPase (setting [2]) came out at 56%; at H⁺/K⁺ ATPase (setting [3]), 142%.
In the same order, the values of `c1ccc(-c2cccc(-c3cn4c(nc5ccccc54)s3)n2)cc1` [Example 37, 2-[2-(6-Phenylpyridyl)]thiazolo[3,2-a]benzimidazole] are 22% and 381%.

For the origin of these results see patent EP0129409B1, “Thiazolo - and thiazinobenzimidazoles” (JOHN WYETH & BROTHER LIMITED, priority 1983, dated 1984).
